Measurements taken from patent publication US11660303B2, “2-phenylimidazo[4,5-b]pyridin-7-amine derivates useful as inhibitors of mammalian tyrosine kinase ROR1 activity” (KANCERA AB, priority 2016, dated 2023).

What was measured:
[1] = tested on: PBMC from healthy volunteers; test: CellTiter-Blue Cell Viability Assay, PBMC from healthy volunteers; format: cell-based; settings: Homo sapiens, cell toxicity, culture 24, 48 and 72 h (time of the values not stated)
Protocol: (§1) The CellTiter-Blue® Cell Viability Assay provides a homogeneous, fluorometric method for estimating the number of viable cells present in multi-well plates. The assay uses the indicator dye resazurin to measure the metabolic capacity of cells. Viable cells retain the ability to reduce resazurin into resorufin, which is highly fluorescent.
(§2) Stock solutions (10 or 100 mM in DMSO) of compounds were serially diluted 1:2 in 11 concentrations and 25 nL/well (100 mM stock) or 50 nL/well (10 mM stock) were acoustically dispensed in assay plates with an EDC acoustic dispenser. Final starting concentration in the assay was 20 μM (0.2% DMSO) or 100 μM (0.1% DMSO) for test compounds.
(§3) Peripheral blood mononuclear cells (PBMC) from CLL patients or healthy volunteers were seeded in assay plates (384-well black/clear, Greiner #781091) pre-dispensed with compounds, 25 μL/well, and cultured for 24, 48 and 72 h. The cell concentration was 50 000 cells/well for PBMC from CLL patients or healthy volunteers. After 24, 48 and 72 h culture, Celltiter Blue reagent was added (5 μL/well) and the plates were incubated for 2 h. The plates were read in an Envision fluorescence reader (PerkinElmer) with Ex544 nm/Em590 nm. Results were calculated as % cytotoxicity compared to background (cells treated with 0.2% DMSO).
(§4) Thus, IC50 values for cell toxicity in PBMC from CLL patients as well as healthy volunteers for some compounds of the invention are shown in Table 3 as measured by the CellTiter-Blue® Cell Viability Assay.

[2] = tested on: PBMC from CLL patients; test: CellTiter-Blue Cell Viability Assay, PBMC from CLL patients; format: cell-based; settings: Homo sapiens, cell toxicity, culture 24, 48 and 72 h (time of the values not stated)
Protocol: as §1, §2, §3, §4

Row | SMILES | IC50 [1] | IC50 [2]
1 | COCCCN1CCN(c2ccc(-c3nc4c(NC5CCN(C(C)C)CC5)c(Cl)cnc4[nH]3)cc2)CC1=O [Example 246, 4-[4-(6-Chloro-7-{[1-(1-methylethyl)piperidin-4-yl]amino}-3H-imidazo[4,5-b]pyridin-2-yl)phenyl]-1-(3-methoxypropyl)piperazin-2-one] | > 20000 nM | 110 nM
2 | CN1CCC(Nc2c(Cl)cnc3[nH]c(-c4ccc(N5CCC(CCO)CC5)cc4)nc23)CC1 [Example 254, 2-[1-(4-{6-Chloro-7-[(1-methylpiperidin-4-yl)amino]-3H-imidazo[4,5-b]pyridin-2-yl}phenyl)piperidin-4-yl]ethanol] | 16300 nM | 50 nM
3 | COCCN1CCN(c2ccc(-c3nc4c(NC5CCN(Cc6ccc(OC)cc6)CC5)c(Cl)cnc4[nH]3)cc2)CC1=O [Example 260] | > 20000 nM | 220 nM
4 | CN1CCC(Nc2c(Br)cnc3[nH]c(-c4ccc(N5CCN(CCCO)CC5)cc4)nc23)CC1 [Example 268, 3-[4-(4-{6-Bromo-7-[(1-methylpiperidin-4-yl)amino]-3H-imidazo[4,5-b]pyridin-2-yl}phenyl)piperazin-1-yl]propan-1-ol] | > 20000 nM | 10 nM
5 | COCCC(=O)N1CCN(c2ccc(-c3nc4c(NC5CCN(C)CC5)c(Cl)cnc4[nH]3)cc2)CC1 [Example 276, 6-Chloro-2-{4-[4-(3-methoxypropanoyl)piperazin-1-yl]phenyl}-N-(1-methylpiperidin-4-yl)-3H-imidazo[4,5-b]pyridin-7-amine] | > 20000 nM | 50 nM
6 | COCCC1CCN(c2ccc(-c3nc4c(NC5CCN(C)CC5)c(Cl)cnc4[nH]3)cc2)CC1 [Example 281, 6-Chloro-2-{4-[4-(2-methoxyethyl)piperidin-1-yl]phenyl}-N-(1-methylpiperidin-4-yl)-3H-imidazo[4,5-b]pyridin-7-amine] | 8400 nM | 60 nM
7 | CN1CCC(Nc2c(Cl)cnc3[nH]c(-c4ccc(N5CCN(Cc6ccccc6)C(=O)C5)cc4)nc23)CC1 [Example 291, 1-Benzyl-4-(4-{6-chloro-7-[(1-methylpiperidin-4-yl)amino]-3H-imidazo[4,5-b]pyridin-2-yl}phenyl)piperazin-2-one] | 6500 nM | 40 nM
8 | CCN1CCC(Nc2c(Br)cnc3[nH]c(-c4ccc(N5CCN(C)C(=O)C5)cc4)nc23)CC1 [Example 299, 4-(4-{6-Bromo-7-[(1-ethylpiperidin-4-yl)amino]-3H-imidazo[4,5-b]pyridin-2-yl}phenyl)-1-methylpiperazin-2-one] | > 20000 nM | 90 nM
9 | CCN1CCC(Nc2c(Br)cnc3[nH]c(-c4ccc(N5CCN(C(=O)c6cccnc6)CC5)cc4)nc23)CC1 [Example 304, 6-Bromo-N-(1-ethylpiperidin-4-yl)-2-{4-[4-(pyridin-3-ylcarbonyl)piperazin-1-yl]phenyl}-3H-imidazo[4,5-b]pyridin-7-amine] | > 20000 nM | 60 nM
10 | COCCCN1CCN(c2ccc(-c3nc4c(NC5CCN(CCOC)CC5)c(Cl)cnc4[nH]3)cc2)CC1 [Example 308, 6-Chloro-N-[1-(2-methoxyethyl)piperidin-4-yl]-2-{4-[4-(3-methoxypropyl)piperazin-1-yl]phenyl}-3H-imidazo[4,5-b]pyridin-7-amine] | > 20000 nM | 650 nM
11 | CCN1CCC(Nc2c(Cl)cnc3[nH]c(-c4ccc(N5CCN(Cc6cncs6)CC5)cc4)nc23)CC1 [Example 320, 6-Chloro-N-(1-ethylpiperidin-4-yl)-2-{4-[4-(1,3-thiazol-5-ylmethyl)piperazin-1-yl]phenyl}-3H-imidazo[4,5-b]pyridin-7-amine] | > 20000 nM | 100 nM
12 | CC(C)N1CCC(Nc2c(Cl)cnc3[nH]c(-c4ccc(N5CCN(CCNc6ccnn6C)CC5)cc4)nc23)CC1 [Example 326, 6-Chloro-N-[1-(1-methylethyl)piperidin-4-yl]-2-[4-(4-{2-[(1-methyl-1H-pyrazol-5-yl)amino]ethyl}piperazin-1-yl)phenyl]-3H-imidazo[4,5-b]pyridin-7-amine] | > 20000 nM | 260 nM
13 | CCN1CCC(Nc2c(Br)cnc3[nH]c(-c4ccc(N5CCN(C(=O)c6ccncc6)CC5)cc4)nc23)CC1 [Example 331, 6-Bromo-N-(1-ethylpiperidin-4-yl)-2-{4-[4-(pyridin-4-ylcarbonyl)piperazin-1-yl]phenyl}-3H-imidazo[4,5-b]pyridin-7-amine] | > 20000 nM | 190 nM
14 | CC(C)N1CCC(Nc2c(Br)cnc3[nH]c(-c4ccc(N5CCN(CCC#N)CC5)cc4)nc23)CC1 [Example 337, 3-{4-[4-(6-Bromo-7-{[1-(1-methylethyl)piperidin-4-yl]amino}-3H-imidazo[4,5-b]pyridin-2-yl)phenyl]piperazin-1-yl}propanenitrile] | > 20000 nM | 250 nM
15 | CCOCCN1CCN(c2ccc(-c3nc4c(NC5CC(C)(C)N(C)C(C)(C)C5)c(Br)cnc4[nH]3)cc2)CC1=O [Example 342, 4-(4-{6-Bromo-7-[(1,2,2,6,6-pentamethylpiperidin-4-yl)amino]-3H-imidazo[4,5-b]pyridin-2-yl}phenyl)-1-(2-ethoxyethyl)piperazin-2-one] | > 20000 nM | 40 nM
16 | COCCN1CCN(c2ccc(-c3nc4c(NC5CCN(CC6CC6)CC5)c(Cl)cnc4[nH]3)cc2)CC1=O [Example 355, 4-[4-(6-Chloro-7-{[1-(cyclopropylmethyl)piperidin-4-yl]amino}-3H-imidazo[4,5-b]pyridin-2-yl)phenyl]-1-(2-methoxyethyl)piperrazin-2-one] | > 20000 nM | 110 nM
17 | CCN1CCC(Nc2c(Br)cnc3[nH]c(-c4ccc(N5CCN(C(=O)C(C)(C)C)CC5)cc4)nc23)CC1 [Example 363, 6-Bromo-2-{4-[4-(2,2-dimethylpropanoyl)piperazin-1-yl]phenyl}-N-(1-ethylpiperidin-4-yl)-3H-imidazo[4,5-b]pyridin-7-amine] | 3100 nM | 140 nM
18 | COCCN1CCN(c2ccc(-c3nc4c(NC5CCN(C)CC5)c(Cl)cnc4[nH]3)cc2F)CC1 [Example 372, 6-Chloro-2-{3-fluoro-4-[4-(2-methoxyethyl)piperazin-1-yl]phenyl}-N-(1-methylpiperidin-4-yl)-3H-imidazo[4,5-b]pyridin-7-amine] | > 20000 nM | 310 nM
19 | COCCN1CCN(c2ccc(-c3nc4c(NC5CCN(C)CC5)c(Cl)cnc4[nH]3)cc2OC)CC1 [Example 381, 6-Chloro-2-{3-methoxy-4-[4-(2-methoxyethyl)piperazin-1-yl]phenyl}-N-(1-methylpiperidin-4-yl)-3H-imidazo[4,5-b]pyridin-7-amine] | > 20000 nM | 400 nM
20 | COCCN1CCN(c2ccc(-c3nc4c(NC5CCN(C(C)C)CC5)c(Cl)cnc4[nH]3)cc2OC)CC1 [Example 387, 6-Chloro-2-{3-methoxy-4-[4-(2-methoxyethyl)piperazin-1-yl]phenyl}-N-[1-(1-methylethyl)piperidin-4-yl]-3H-imidazo[4,5-b]pyridin-7-amine] | > 20000 nM | 1300 nM
21 | COCCN1CCN(c2ccc(-c3nc4c(NC5CCN(CCC#N)CC5)c(Cl)cnc4[nH]3)cc2)CC1 [Example 396, 3-{4-[(6-Chloro-2-{4-[4-(2-methoxyethyl)piperazin-1-yl]phenyl}-3H-imidazo[4,5-b]pyridin-7-yl)amino]piperidin-1-yl}propanenitrile] | > 20000 nM | 190 nM
22 | CCOCCN1CCN(c2ccc(-c3nc4c(NC5CCN(CCC#N)CC5)c(Br)cnc4[nH]3)cc2)CC1=O [Example 406, 3-{4-[(6-Bromo-2-{4-[4-(2-ethoxyethyl)-3-oxopiperrazin-1-yl]phenyl}-3H-imidazo[4,5-b]pyridin-7-yl)amino]piperidin-1-yl}propanenitrile] | > 20000 nM | 230 nM
